The test system of series [1] is Differentiated U937 cells. Description: Cell viability: MTT assay. The class given is cell-based, human. The following applies: 1 μg/mL. As to the method:
Differentiated U937 cells were pre-incubated with each test compound (final concentration 1 μg/mL or 10 μg/mL in 200 μL media indicated below) under two protocols: the first for 4 hr in 5% FCS RPMI1640 media and the second in 10% FCS RPMI1640 media for 24 h. The supernatant was replaced with new media (200 μL) and MTT stock solution (10 μL, 5 mg/mL) was added to each well. After incubation for 1 hr the media were removed, DMSO (200 μL) was added to each well and the plates were shaken lightly for 1 hr prior to reading the absorbance at 550 nm. The percentage loss of cell viability was calculated for each well relative to vehicle (0.5% DMSO) treatment. Consequently an apparent increase in cell viability for drug treatment relative to vehicle is tabulated as a negative percentage.

A further series relates to Cigarette Smoke Model. Description: Cigarette smoke model. The following applies: 1.75 μg/mouse (35 μL, bid, i.n.). The class given is in vivo, A/J mice. As to the method:
A/J mice (males, 5 weeks old) were exposed to cigarette smoke (4% cigarette smoke, diluted with air) for 30 min/day for 11 days using a Tobacco Smoke Inhalation Experiment System for small animals (Model SIS-CS; Sibata Scientific Technology, Tokyo, Japan). […] At 12 hr after the last dosing, each of the animals was anesthetized, the trachea cannulated and bronchoalveolar lavage fluid (BALF) was collected. The numbers of alveolar macrophages and neutrophils were determined by FACS analysis (EPICS® ALTRA II, Beckman Coulter, Inc., Fullerton, Calif., USA) using anti-mouse MOMA2 antibody (macrophage) or anti-mouse 7/4 antibody (neutrophil). BALF was centrifuged and the supernatant was collected. The level of keratinocyte chemoattractant (KC; CXCL1) in BALF was quantitated using a Quentikine® mouse KC ELISA kit (R&D systems, Inc., Minneapolis, Minn., USA).

Series [2] has as its system LPS-induced neutrophil accumulation. Description: LPS-induced neutrophil accumulation in mice. The class given is in vivo, Balb/c mice. The following applies: 1.75 μg/mouse. How it is done: […] At T=0, mice were placed into an exposure chamber and exposed to LPS (7.0 mL, 0.5 mg/mL solution in PBS) for 30 min). After a further 8 hr the animals were anesthetized, their tracheas cannulated and BALF extracted by infusing and then withdrawing from their lungs 1.0 mL of PBS via the tracheal catheter. Total and differential white cell counts in the BALF samples were measured using a Neubaur haemocytometer. Cytospin smears of the BALF samples were prepared by centrifugation at 200 rpm for 5 min at RT and stained using a DiffQuik stain system (Dade Behring). Cells were counted using oil immersion microscopy. Data for neutrophil numbers in BAL are shown as mean±S.E.M. (standard error of the mean). The percentage inhibition of neutrophil accumulation was calculated for each treatment relative to vehicle treatment.

Bounds are passed on as bounds.

For `COCC(=O)Nc1cc(Oc2ccc(NC(=O)Nc3cc(C(C)(C)C)nn3-c3ccc(C)cc3)c3ccccc23)ccn1` [Reference Compound, N-(4-(4-(3-(3-tert-butyl-1-p-tolyl-1H-pyrazol-5-yl)ureido)naphthalen-1-yloxy)pyridin-2-yl)-2-methoxyacetamide, reference compound], the “MTT Assay Cell viability in d-U937 Cells” value in series [1] (4 h) was “−ve (−ve and +ve indicate the value is below and above respectively, the no significant effect threshold defined as 30% inhibition at 1 μg/mL at the time point indicated.)”; in series [1] (24 h), “+ve (−ve and +ve indicate the value is below and above respectively, the no significant effect threshold defined as 30% inhibition at 1 μg/mL at the time point indicated.)”.

Regarding `CCC(=O)O[C@]1(C(=O)SCF)[C@H](C)C[C@H]2[C@@H]3C[C@H](F)C4=CC(=O)C=C[C@]4(C)[C@@]3(F)[C@@H](O)C[C@@]21C` [Fluticasone Propionate, fluticasone propionate, reference compound], in the series on Cigarette Smoke Model, the “macrophage accumulation into airways” value is listed as “did not inhibit” and the “neutrophil accumulation into airways” value is “did not inhibit”. In addition, the “inhibition of LPS-induced neutrophil accumulation” value in series [2] is reported as over 80%.

The values above are taken from patent US9108950B2, “1-pyrazolyl-3-(4-((2-anilinopyrimidin-4-yl)oxy)napththalen-1-yl) ureas as p38 MAP kinase inhibitors” (Respivert Ltd., priority 2011, dated 2015).
